Data published in patent US8178727B2, “Bis(arylmethylidene)acetone compound, anti-cancer agent, carcinogenesis-preventive agent, inhibitor of expression of Ki-Ras, ErbB2, c-Myc and Cycline D1, β-catenin-degrading agent, and p53 expression enhancer” (National University Corporation Tohoku University, priority 2005, dated 2012).

Key:
DLD-1 cells [1] = test: Cell growth inhibition (Cell Counting Kit 8, Wst-8), 96 h exposure; assay type: cell-based; conditions: Homo sapiens, DLD-1 colon cancer cells
Experimental: (§1) The inhibitory efficacy of bis(arylmethylidene)-acetones on the development and growth of malignant tumor cells was examined. Curcumin and bis(arylmethylidene)-acetone compounds were dissolved in DMSO to obtain 50 mM compound solutions for storage. Sixteen human cancer cell lines (HCT116, DLD-1, SW620. LK87, PC3, MCF7, PK9, HuCCT-1, SH10TC, GCIY, G361, 8505c, HepG2, A431, ACHN, OVK18) were obtained from the Medical Cellular Resources Center of the Institute of Development, Aging, and Cancer at Tohoku University, Japan. These cells were cultured at 37° C. under 5% CO2 conditions using as a culture medium RPMI1640 (Sigma Aldrich) supplemented with 10% fetal bovine serum and kanamycin (Wako Pure Chemical Industries: final concentration, […]).
(§2) Three human colon-cancer cell lines (DLD-1, HCT116, SW620) were used in screening for cell growth inhibitory efficacy. The test compounds (bis(arylmethylidene)-acetones) were added to the culture media at the target concentrations, and exposure to the compounds was then continued for 96 hours in order to investigate not only acute cell damages but also effects on the cells, involving intracellular metabolic responses and others. The cell growth inhibitory efficacy was then evaluated with Cell Counting Kit 8 (Wst-8 Test, Dojindo Laboratories, Japan). In this analysis method, tetrazolium salt Wst-8 is degraded by reduced form nicotinamide adenine dinucleotide (nicotinamide adenine dinucleotide H; NADH). The activity of NADH is maintained only inside viable cells, and Wst-8 becomes colored upon degradation. The optical absorbance at 450 nm is measured, whereby the number of viable cells can be indirectly estimated.
(§3) Each cell line was placed on a 96-well microtiter plate at a cell density of 2500 to 5000 cells/100 μL/well in accordance with the growth rate of the cell line. After cell cultivation for 24 hours, […] medium containing each compound was added. The final concentration of each test compound is 0, 0.1, 0.25, 0.5, 1, 2.5, 5, 10, 25, 50, and 100 μM (11 levels). The maximum final concentration of DMSO used as a solvent was 1%. After culturing for 96 hours, the medium was aspirated away, followed by washing with PBS. Next, 100 μL of a medium containing a solution of Cell Counting Kit 8 at 1/10 (v/v) was added. Culturing was then continued for one hour. Thereafter, each optical absorbance at 450 nm (620 nm background) was measured with an MPR-A4i microplate reader (Tosoh, Japan). A curve of the inhibition of cell growth was constructed using the measured optical absorbances.

HCT116 cells = test: as above; assay type: cell-based; conditions: Homo sapiens, HCT-116, HCT116 colon cancer cells
Experimental: as §1, §2, §3

SW620 cells = test: as above; assay type: cell-based; conditions: Homo sapiens, SW-620, SW620 colon cancer cells
Experimental: as §1, §2, §3

colon-cancer cells = test: Growth inhibition compared with anti-cancer agents 5-FU, CPT11, CDDP (FIG. 6); assay type: cell-based, human
Experimental: as §1, §3
Stored solutions of three anti-cancer agents: 5-FU, CDDP, and CPT11, prepared beforehand (1 mM), were suitably diluted prior to use, and also added to culture media.

DLD-1 cells [2] = test: Cell cycle / apoptosis-inducing activity by flow cytometry (FACScan); assay type: cell-based, human
Experimental: The activity of test compounds in cell cycle (apoptosis-inducing activity) was analyzed with a flow cytometer (FACScan). […] The cells attached to the plates are then harvested together with the cells suspended in the medium, centrifuged, and pelleted, followed by removal of supernatants. The collected cells were washed twice with PBS, then fixed with 70% ethanol for 30 minutes or more at 4° C., then washed with PBS once more, suspended in PBS supplemented with RNaseA (final concentration: 50 μg/mL; Qiagen), and incubated for 20 minutes at 37° C. Centrifugation was performed, and the supernatant was removed, after which the nuclei were stained using a solution of propidium iodide ([…]). Filtration was then performed using a nylon mesh having a pore size of 50 μm, and a DNA histogram was analyzed with a FACScan flow cytometer ([…]). The cellular fractions of subG1 phase, G0/G1 phase, S phase, and G2/M phase were determined by calculation using macCycle (Phoenix Flow Systems).

β-catenin [3] = test: Western blot of β-catenin degrading activity; assay type: cell-based, human
Experimental: Western-blot analysis was used to investigate effects on the expression of oncogene products, ErbB2, c-Myc, and Cyclin D1, whose activity is enhanced in a variety of cancer cells, and to investigate the activity of degrading β-catenin, which plays an important role in the initial stages of carcinogenesis to the formation and development of tumors.
(§4) Western-blot analysis was performed in the following manner:
(§5) After HCT116 cells were treated with each test compound, plate-adhered cells were recovered along with cells suspended in supernatants, centrifuged, and pelleted. The cells were then lysed with a lysis solution (40 mM Tris-HCl, 1% Triton X-100, 2 mM MgCl2) supplemented with 200-μM phenylmethanesulfonyl fluoride (PMSF), 500-μM benzamidine, and 1-μg/mL leupeptin. After the mixture was allowed to stand on ice for 30 minutes, it was centrifuged for 10 minutes at 4° C. and 10000×g, and supernatants were recovered. To the resultant supernatant was added equimolarly 2× sample buffer (0.1 M Tris-HCl (pH 6.8), 4% SDS, 20% glycerol, and 12% β-mercaptoethanol), and the mixture was shaken for 3 minutes at 4° C., then heated to 95° C. for 4 minutes, and then stored at −20° C. until use. The cell lysates were phoresed on 8% SDS-PAGE, transferred to a Hybond-P membrane (Amersham Biosciences), and made to react with various monoclonal antibodies described below.
(§6) Monoclonal antibodies: anti-actin antibody (A2066, Sigma Aldrich), anti-β-catenin antibody (6101 53, BD-transduction Laboratories), anti-p53 antibody (FL393: sc-6243HRP), anti-cyclin D1 antibody (M-20: sc-718), anti-c-Myc antibody (9E10: sc-40), anti-k-Ras-2B antibody (C-19: sc-521), and anti-c-ErbB2 antibody (A0485, DAKO Cytomation).

[4] = tested on: melanoma and breast cancer cells; conditions: Non-Patent Document 2; cited from earlier work
p53 = test: Western blot of p53 gene product expression; assay type: cell-based, human; conditions: FIG. 11
Experimental: as §4, §5, §6
Curcumin is known to have activity in degrading p53 gene products. Degradation, genetic expression reduction, instability, or other deficiencies of the tumor suppressor gene p53 gene products, result in disadvantageous conditions as concerns cell malignancy and tendency to become cancerous.

colon cancer cells = conditions: Non-Patent Document 1; cited from earlier work
β-catenin [5] = conditions: Non-Patent Document 1; cited from earlier work
[6] = cited from earlier work

Row | SMILES | IC50 (DLD-1 cells [1]) | IC50 (HCT116 cells) | IC50 (SW620 cells) | growth inhibitory activity relative to 5-FU, CPT11 and CDDP (colon-cancer cells) | concentration arresting the cell cycle at the G2/M phase (DLD-1 cells [2]; DLD-1 cells, flow cytometry) | concentration at which β-catenin degrading activity is displayed (β-catenin [3]; FIG. 9) | concentration at which β-catenin degrading activity is displayed (β-catenin [3]; FIG. 9, listed as BDMPP) | efficacy relative to curcumin [4] | sub-G1 fraction (apoptosis-induced cell death) (DLD-1 cells [2]; curcumin (20 μM in method)) | transient drop in expression of p53 6 to 12 hours after administration (p53) | concentration inhibiting the growth of colon cancer cells (colon cancer cells) | concentration degrading β-catenin (β-catenin [5]) | water-solubility [6]
1 | COc1ccc(C=CC(=O)C=Cc2ccc(OC)c(OC)c2)cc1OC [GO-035, 1,5-Bis(3,4-dimethoxyphenyl)-penta-1,4-dien-3-one, reference compound] | 2 µM | 2.5 µM | 3.5 µM | much stronger | 5 µM | 5.0 µM | 5 µM | 1.3 to 2.1 times | – | – | – | – | –
2 | COc1cc(/C=C/C(=O)CC(=O)/C=C/c2ccc(O)c(OC)c2)ccc1O [curcumin, (1E,6E)-1,7-bis(4-hydroxy-3-methoxyphenyl)-1,6-heptadiene-3,5-dione, reference compound] | 8 µM | 8 µM | 10 µM | – | – | 20.0 µM | – | – | not substantially observed | transient drop | 20 µM | 15 µM | poor
